Results published in paper PMC10455239, “Antimicrobial, Cytotoxic, and α-Glucosidase Inhibitory Activities of Ethanol Extract and Chemical Constituents Isolated from Homotrigona apicalis Propolis—In Vitro and Molecular Docking Studies” (Life, 2023).
In brackets after ≈: the same amount, converted by molar mass. Like-named read-outs stand apart in the source and are kept apart here.

Experiments:
[1] = system: HepG-2 (human hepatoma); assay: Cytotoxicity assay (MTT); assay type: cell-based; details: HepG2, MTT, 48 h incubation, read-out: IC50 Hep-G2
Protocol: (§1) The cytotoxic assays were evaluated in triplicate against three cancer cell lines, namely KB (epidermal carcinoma), A-549 (human lung adenocarcinoma), and HepG-2 (human hepatoma) (ATCC), with a modification of the previously published method. The cells were cultured in Dulbecco’s D-MEM medium (Gibco, Life Technologies Corporation, Grand Island, NY, USA), supplemented with 10% fetal calf serum (Sigma-Aldrich, St. Loius, MO, USA), L-glutamine (2 mM) (Sigma-Aldrich, St. Loius, MO, USA), penicillin G (100 UI/mL), and streptomycin (100 μg/mL) (Sigma-Aldrich, St. Loius, MO, USA). The compound solutions were prepared in DMSO, and the cytotoxic assays were conducted in 96-well microtiter plates against the cancer cells (3 × 10^5 cells/mL concentration). After 48 h incubation at 37 °C in an air/CO2 (95:5) atmosphere, with or without isolated compounds, MTT reagent was added to each well (0.5 mg/mL). The cell growth was assessed by measuring the colorimetric of formazan at 570 nm using a microplate reader. […] Ellipticine was used as a positive reference.

[2] = system: A-549 (human lung adenocarcinoma); assay: Cytotoxicity assay (MTT); assay type: cell-based; details: A549, MTT, 48 h incubation, read-out: IC50 A-549
Protocol: as §1

[3] = system: KB (epidermal carcinoma); assay: Cytotoxicity assay (MTT); assay type: cell-based; details: MTT, 48 h incubation; read-out: IC50 KB
Protocol: as §1

[4] = system: Staphylococcus aureus; assay: Antimicrobial activity, broth microdilution; assay type: cell-based; details: read-out: IC50 S. aureus
Protocol: (§2) The antimicrobial activity assay was performed using the broth microdilution method. Dimethyl sulfoxide (DMSO) was used for the preparation of compound solutions at concentrations of 256 μg/mL, 64 μg/mL, 16 μg/mL, 4 μg/mL, and 1 μg/mL. Three strains of Gram-positive bacteria (Staphylococcus aureus, Bacillus cereus, and Lactobacillus fermentum); three strains of Gram-negative bacteria (Salmonella enterica, Escherichia coli, and Pseudomonas aeruginosa), and fungus Candida albicans (obtained from the American Type Culture Collection (ATCC)) were used for the test. Ampicillin, Cefotaxim, and Nystatin were used as positive controls for the Gram (+) bacterial and Gram (−) bacterial strains and C. albicans, respectively. The activity of the isolated compounds was expressed as an IC50 value (half-maximal inhibitory concentration). The IC50 values were calculated using the program […].

[5] = system: Salmonella enterica; assay: Antimicrobial activity, broth microdilution; assay type: cell-based; details: Salmonella enterica; Gram (−) strain; read-out: IC50 S. enterica
Protocol: as §2

[6] = system: Escherichia coli; assay: Antimicrobial activity, broth microdilution; assay type: cell-based; details: Escherichia coli, read-out: IC50 E. coli
Protocol: as §2

[7] = system: Candida albicans; assay: Antimicrobial activity, broth microdilution; assay type: cell-based; details: for IC50: Candida albicans, read-out: IC50 C. albicans
Protocol: as §2

[8] = system: Lactobacillus fermentum; assay: Antimicrobial activity, broth microdilution; assay type: cell-based; details: read-out: IC50 L. fermentum
Protocol: as §2

[9] = system: Pseudomonas aeruginosa; assay: Antimicrobial activity, broth microdilution; assay type: cell-based; details: Pseudomonas aeruginosa, read-out: IC50 P. aeruginosa
Protocol: as §2

[10] = system: Bacillus cereus; assay: Antimicrobial activity, broth microdilution; assay type: cell-based; details: read-out: IC50 B. cereus
Protocol: as §2

[11] = biological target: T1, α-glucosidase (Saccharomyces cerevisiae, UniProt P53341); assay: biochemical
T1 construct: purchased Sigma-Aldrich G0660
Protocol: An assay for the α-glucosidase inhibitory activity was carried out by a modification of the published method. Briefly, solutions of α-glucosidase (Saccharomyces cerevisiae, G0660, Sigma-Aldrich, St. Louis, MO, USA) and p-nitrophenyl α-D-glucopyranoside (Sigma-Aldrich, St. Louis, MO, USA) were prepared in a phosphate buffer (100 mM, pH 6.8, Sigma-Aldrich, St. Louis, MO, USA). […] The compound solution (2 μL) and 40 µL of enzyme solution (0.5 U/mL) in 120 µL phosphate buffer were mixed. After 5 min of preincubation, 20 µL of 10 mM p-nitrophenyl α-D-glucopyranoside prepared in phosphate buffer was added, and the reaction mixture was incubated for 30 min at 37 °C. The reaction was quenched by the addition of 80 µL of 0.2 M Na2CO3. The absorbance of the released p-nitrophenol was measured at 410 nm using a Biotek reader. The % inhibition was calculated using the following equation:Inhibition (%) = [1 − (Asample/Acontrol)] ∗ 100
The IC50 values of the isolated compounds were calculated using the program Table Curve.

[12] = system: Gram (+) bacterial strains; assay: Antibacterial activity, range over strains; assay type: cell-based; details: range over strains and compounds
Protocol: as §2

[13] = Table S1, α-glucosidase, read-out: IC50 (Table S1) (converted)
[14] = p-nitrophenyl α-D-glucopyranoside, pH 6.8, 37 °C, read-out: IC50 α-Glucosidase Inhibitory Activity

T1 sequence (P53341 whole entry): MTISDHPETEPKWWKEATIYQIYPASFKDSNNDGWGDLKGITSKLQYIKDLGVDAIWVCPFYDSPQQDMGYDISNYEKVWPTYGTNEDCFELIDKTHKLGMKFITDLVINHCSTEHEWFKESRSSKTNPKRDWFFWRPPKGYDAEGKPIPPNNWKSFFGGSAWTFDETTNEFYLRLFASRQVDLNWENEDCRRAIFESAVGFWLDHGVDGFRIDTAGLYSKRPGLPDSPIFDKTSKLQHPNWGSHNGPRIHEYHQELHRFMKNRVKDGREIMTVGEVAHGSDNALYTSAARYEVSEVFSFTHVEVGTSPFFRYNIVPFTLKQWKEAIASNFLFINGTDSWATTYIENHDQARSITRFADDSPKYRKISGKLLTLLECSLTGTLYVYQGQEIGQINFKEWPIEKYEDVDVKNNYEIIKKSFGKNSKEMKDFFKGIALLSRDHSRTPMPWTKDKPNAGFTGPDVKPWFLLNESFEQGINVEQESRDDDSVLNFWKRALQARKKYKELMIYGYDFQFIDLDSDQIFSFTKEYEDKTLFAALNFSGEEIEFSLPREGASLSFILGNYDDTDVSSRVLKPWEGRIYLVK

## C=C1CC[C@@H]2[C@H]([C@H]3[C@H]1CC[C@]3(C)O)C2(C)C [Compound 1, spathulenol]
[1]
  IC50: > 128 µg/mL
[2]
  IC50: > 128 µg/mL
[3]
  IC50: > 128 µg/mL
[4]
  IC50: > 256 µg/mL
[5]
  IC50: > 256 µg/mL
[6]
  IC50: > 256 µg/mL
[7]
  IC50: > 256 µg/mL
[8]; Gram (+) strain
  IC50: 206 ± 5.23 µg/mL (≈ 934 µM)
[9]
  IC50: > 256 µg/mL
[10]
  IC50: > 256 µg/mL
[11]; [13]
  IC50: > 1160 µM
[11]; [14]
  IC50: > 1160 µM

## C[C@@H]1[C@H](O)[C@@H](C)/C=C/C=C/CC/C=C/C=C/C=C/C=C/C(O[C@H]2O[C@H](C)[C@@H](O)[C@H](N)[C@@H]2O)CC2O[C@](O)(CC(O)C(O)CCC(O)CC(O)CC(O)CC(=O)O[C@H]1C)CC(O)C2C(=O)O (stereo partly drawn) [N, Nystatin, reference compound]
[7]; Fungus
  IC50 C. albicans: 1.32 ± 0.05 µg/mL (≈ 1.43 µM)

## CC1(C)[C@H]2[C@H]3[C@@H](CC[C@]3(C)O)[C@](C)(O)CC[C@H]21 [Compound 2, 1αH,5βH-aromandendrane-4β,10α-diol]
[1]
  IC50: > 128 µg/mL
[2]
  IC50: > 128 µg/mL
[3]
  IC50: > 128 µg/mL
[4]
  IC50: > 256 µg/mL
[5]
  IC50: > 256 µg/mL
[6]
  IC50: > 256 µg/mL
[7]
  IC50: > 256 µg/mL
[8]
  IC50: > 256 µg/mL
[9]
  IC50: > 256 µg/mL
[10]
  IC50: > 256 µg/mL
[11]; [13]
  IC50: > 1070 µM
[11]; [14]
  IC50: > 1070 µM

## C=C1CC[C@@H](O)[C@]2(C)CC[C@@H](C(C)C)[C@H](O)[C@@H]12 [Compound 3, 1β,6α-dihydroxy-4(15)-eudesmene]
[1]
  IC50: > 128 µg/mL
[2]
  IC50: > 128 µg/mL
[3]
  IC50: > 128 µg/mL
[4]
  IC50: > 256 µg/mL
[5]
  IC50: > 256 µg/mL
[6]
  IC50: > 256 µg/mL
[7]
  IC50: > 256 µg/mL
[8]
  IC50: > 256 µg/mL
[9]
  IC50: > 256 µg/mL
[10]
  IC50: > 256 µg/mL
[11]; [13]
  IC50: > 1070 µM
[11]; [14]
  IC50: > 1070 µM

## Cc1c2ccncc2c(C)c2c1[nH]c1ccccc12 [Ellipticine, reference compound]
[1]
  IC50: 0.5 ± 0.03 µg/mL (≈ 2.03 µM)
[2]
  IC50: 0.34 ± 0.02 µg/mL (≈ 1.38 µM)
[3]
  IC50: 0.48 ± 0.03 µg/mL (≈ 1.95 µM)

## C[C@H]1[C@H](C)CC[C@]2(C(=O)O)CC[C@]3(C)C(=CC[C@@H]4[C@@]5(C)CC[C@H](O)C(C)(C)[C@@H]5CC[C@]43C)[C@H]12 [Compound 7, ursolic acid]
[12]
  IC50: 0.56 to 17.3 µg/mL (≈ 1.23 to 37.9 µM)
[1]
  IC50: > 128 µg/mL
[2]
  IC50: > 128 µg/mL
[3]
  IC50: > 128 µg/mL
[4]; Gram (+) strain
  IC50: 7.1 ± 0.25 µg/mL (≈ 15.5 µM)
[5]
  IC50: > 256 µg/mL
[6]; Gram (−) strain
  IC50: > 256 µg/mL
[7]; Fungus
  IC50: > 256 µg/mL
[8]; Gram (+) strain
  IC50: 10.6 ± 0.7 µg/mL (≈ 23.2 µM)
[9]; Gram (−) strain
  IC50: > 256 µg/mL
[10]; Gram (+) strain
  IC50: 10.2 ± 0.67 µg/mL (≈ 22.3 µM)

## CC1(C)S[C@@H]2[C@H](NC(=O)[C@H](N)c3ccccc3)C(=O)N2[C@H]1C(=O)O [A, Ampicillin, reference compound]
[4]; Gram (+) strain
  IC50: 0.02 ± 0.005 µg/mL (≈ 0.0572 µM)
[8]; Gram (+) strain
  IC50: 1.03 ± 0.07 µg/mL (≈ 2.95 µM)
[10]; Gram (+) strain
  IC50: 3.62 ± 0.15 µg/mL (≈ 10.4 µM)
